Reference: patent US10954252B1, “Inhibitors of human immunodeficiency virus replication” (ViiV HEALTHCARE UK (NO.5) LIMITED, priority 2017, dated 2021)

Assays:
[1] = tested on: recombinant NL4-3 virus (nef section replaced with Renilla luciferase gene) in MT-2 cells; test: HIV cell culture assay (antiviral activity, luciferase readout); type: cell-based; settings: MT-2 cells infected for 4-5 days with recombinant NL4-3 luciferase virus
Procedure, shortened: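 NL4-3 reporter virus carrying Renilla luciferase in place of part of nef, produced in 293T cells, was used to infect MT-2 cells for 4-5 days with serial compound dilutions. Luciferase activity was read with a live-cell substrate; EC50 derived from the median effect equation.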

[2] = Compound cytotoxicity, XTT-based colorimetric assay; type: cell-based; settings: human, uninfected MT2 cells
Procedure, shortened: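 CC50 from uninfected MT2 cells run under the antiviral-assay protocol without virus. Viability read on day 4 by XTT colorimetric assay.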

Compound	EC50 ([1]; Renilla, NL43, Table 1a) [nM]	CC50 at 4 days ([2]; Table 1a, day 4, XTT) [nM]	further results
O=C(Cn1nc(C(F)F)c2c1C(F)(F)[C@@H]1C[C@H]21)N[C@@H](Cc1cc(F)cc(F)c1)c1nc2ncccc2c(=O)n1-c1ccc(Cl)c2c(NS(=O)(=O)C3CC3)nn(CC(F)F)c12 (mixture of isomers) [Example 45.2, N-[(1S)-1-{3-[4-chloro-3-cyclopropanesulfonamido-1-(2,2-difluoroethyl)-1H-indazol-7-yl]-4-oxo-3H,4H-pyrido[2,3-d]pyrimidin-2-yl}-2-(3,5-difluorophenyl)ethyl]-2-[(2S,4R)-9-(difluoromethyl)-5,5-difluoro-7,8-diazatricyclo[4.3.0.0^2,4]nona-1(6),8-dien-7-yl]acetamide]	0.024	> 1000	–
COc1ccc2c(=O)n(-c3ccc(Cl)c4c(NS(C)(=O)=O)nn(CC(F)F)c34)c([C@H](Cc3cc(F)cc(F)c3)NC(=O)Cn3nc(C(F)F)c4c3C(F)(F)[C@@H]3C[C@H]43)nc2c1 (single isomer, unassigned) [Example 191]	0.06	> 1000	–
O=C(Cn1nc(C(F)F)c2c1C(F)(F)[C@@H]1C[C@H]21)N[C@@H](Cc1cc(F)cc(F)c1)c1nc2ncccc2c(=O)n1-c1ccc2ncsc2c1 [Example 36, N-[(1S)-1-[3-(1,3-benzothiazol-6-yl)-4-oxo-3H,4H-pyrido[2,3-d]pyrimidin-2-yl]-2-(3,5-difluorophenyl)ethyl]-2-[(2S,4R)-9-(difluoromethyl)-5,5-difluoro-7,8-diazatricyclo[4.3.0.0^2,4]nona-1(6),8-dien-7-yl]acetamide]	10.4	> 1000	–
O=C(Cc1c[nH]c2ccc(O)cc12)N[C@@H](Cc1cc(F)cc(F)c1)c1nc2ccccc2c(=O)n1-c1ccc(S(=O)(=O)N2CCOCC2)cc1 [Example 164, (S)—N-(2-(3,5-difluorophenyl)-1-(3-(4-(morpholinosulfonyl)phenyl)-4-oxo-3,4-dihydroquinazolin-2-yl)ethyl)-2-(5-hydroxy-1H-indol-3-yl)acetamideacetamide]	1.17	> 10000	–
O=C(Cn1nc(C(F)F)c2c1C(F)(F)[C@@H]1C[C@H]21)N[C@@H](Cc1cc(F)cc(F)c1)c1nc2ccccc2c(=O)n1-c1ccc(S(=O)(=O)N2CCOCC2)cc1 [Example 165, 2-((3bS,4aR)-3-(difluoromethyl)-5,5-difluoro-3b,4,4a,5-tetrahydro-1H-cyclopropa[3,4]cyclopenta[1,2-c]pyrazol-1-yl)-N—((S)-2-(3,5-difluorophenyl)-1-(3-(4-(morpholinosulfonyl)phenyl)-4-oxo-3,4-dihydroquinazolin-2-yl)ethyl)acetamide]	0.23	> 10000	–
Cn1nc(NS(C)(=O)=O)c2c(Cl)ccc(-n3c([C@H](Cc4cc(F)cc(F)c4)NC(=O)Cn4nc(C(F)F)c5c4C(F)(F)[C@@H]4C[C@H]54)nc4cc(C(C)(F)F)ccc4c3=O)c21 (single isomer, unassigned) [Example 196]	0.081	> 1000	–
O=C(Cc1c[nH]c2ccc(O)cc12)NC(Cc1cc(F)cc(F)c1)c1nc2cn[nH]c2cc1-c1ccc2scnc2c1 (single isomer, unassigned) [Example 3.3, N-(1-(6-(benzo[d]thiazol-5-yl)-1H-pyrazolo[4,3-b]pyridin-5-yl)-2-(3,5-difluorophenyl)ethyl)-2-(5-hydroxy-1H-indol-3-yl)acetamide]	–	–	EC50 ([1]; Table 1): 5.7 nM; CC50 at 4 days ([2]; Table 1, day 4, XTT): 42400 nM
O=C(Cn1nc(C(F)F)c2c1C(F)(F)[C@@H]1C[C@H]21)NC(Cc1cc(F)cc(F)c1)c1nc2cc[nH]c2cc1-c1ccc2c(c1)C(=O)NC2 (stereo partly drawn) [Example 61, 2-((3bS,4aR)-3-(difluoromethyl)-5,5-difluoro-3b,4,4a,5-tetrahydro-1H-cyclopropa[3,4]cyclopenta[1,2-c]pyrazol-1-yl)-N-(2-(3,5-difluorophenyl)-1-(6-(3-oxoisoindolin-5-yl)-1H-pyrrolo[3,2-b]pyridin-5-yl)ethyl)acetamide]	4.51	> 10000	–
CC(C)c1ccc(-c2cc3[nH]ccc3nc2[C@@H](Cc2cc(F)cc(F)c2)NC(=O)Cn2nc(C(F)F)c3c2C(F)(F)[C@@H]2C[C@H]32)cn1 [Example 85, 2-((3bS,4aR)-3-(difluoromethyl)-5,5-difluoro-3b,4,4a,5-tetrahydro-1H-cyclopropa[3,4]cyclopenta[1,2-c]pyrazol-1-yl)-N—((R)-2-(3,5-difluorophenyl)-1-(6-(6-isopropylpyridin-3-yl)-1H-pyrrolo[3,2-b]pyridin-5-yl)ethyl)acetamide]	299	> 3160	–
Cn1nc(NS(C)(=O)=O)c2c(Cl)ccc(-n3c([C@H](Cc4cc(F)cc(F)c4)NC(=O)Cn4ccc(C(F)(F)F)n4)nc4ccc(OC(F)(F)F)cc4c3=O)c21 (single isomer, unassigned) [Example 143]	–	> 1000	EC50 ([1]; Table 1a): 84 nM
COc1ccc2c(=O)n(-c3ccc(Cl)c4c(NS(C)(=O)=O)nn(C)c34)c(C(Cc3cc(F)cc(F)c3)NC(=O)Cn3nc(C(F)F)c4c3C(F)(F)C3CC43)nc2n1 (stereo in doubt) [Example 13.1, N—((S)-1-(3-(4-chloro-1-methyl-3-(methylsulfonamido)-1H-indazol-7-yl)-7-methoxy-4-oxo-3,4-dihydropyrido[2,3-d]pyrimidin-2-yl)-2-(3,5-difluorophenyl)ethyl)-2-((3bS,4aR)-3-(difluoromethyl)-5,5-difluoro-3b,4,4a,5-tetrahydro-1H-cyclopropa[3,4]cyclopenta[1,2-c]pyrazol-1-yl)acetamide]	–	–	EC50 ([1]; Renilla, NL43, Table 1): 14300 nM; CC50 at 4 days ([2]; Table 1, day 4, XTT): > 10000 nM
O=C(Cn1nc(C(F)F)c2c1C(F)(F)[C@@H]1C[C@H]21)N[C@@H](Cc1cc(F)cc(F)c1)c1nc2cn[nH]c2cc1-c1ccc(S(=O)(=O)N2CCSCC2)cc1 [Example 27, 2-((3bS,4aR)-3-(difluoromethyl)-5,5-difluoro-3b,4,4a,5-tetrahydro-1H-cyclopropa[3,4]cyclopenta[1,2-c]pyrazol-1-yl)-N—((S)-2-(3,5-difluorophenyl)-1-(6-(4-(thiomorpholinosulfonyl)phenyl)-1H-pyrazolo[4,3-b]pyridin-5-yl)ethyl)acetamide]	4.94	5010	–
Cn1ccc2nc(C(Cc3cc(F)cc(F)c3)NC(=O)Cn3nc(C(F)F)c4c3C(F)(F)[C@@H]3C[C@H]43)c(-c3ccc(Cl)c4c(NS(C)(=O)=O)nn(C)c34)cc21 (single isomer, unassigned) [Example 117]	0.243	> 10000	–
Cn1nc(NS(C)(=O)=O)c2c(Cl)ccc(-n3c([C@H](Cc4cc(F)cc(F)c4)NC(=O)Cn4ccc(C5CC5)n4)nc4cccc(C(F)(F)F)c4c3=O)c21 (single isomer, unassigned) [Example 136]	38.9	> 1000	–
Cn1nc(NS(C)(=O)=O)c2c(Cl)ccc(-n3c([C@H](Cc4cc(F)cc(F)c4)NC(=O)Cn4nc(C(F)F)c5c4C(F)(F)[C@@H]4C[C@H]54)nc4ccc(OC(F)(F)F)cc4c3=O)c21 (single isomer, unassigned) [Example 140]	0.32	> 1000	–
CC(C)c1ccc(-c2cc3[nH]ncc3nc2C(Cc2cc(F)cc(F)c2)NC(=O)Cn2nc(C(F)F)c3c2C(F)(F)[C@@H]2C[C@H]32)cn1 (single isomer, unassigned) [Example 3.9]	–	–	EC50 ([1]; Renilla, NL43, Table 1): 9.9 nM; CC50 at 4 days ([2]; Table 1, day 4, XTT): 9600 nM
Cc1c(F)ccc2c(=O)n(-c3ccc(Cl)c4c(NS(C)(=O)=O)nn(C)c34)c([C@H](Cc3cc(F)cc(F)c3)NC(=O)Cn3nc(C(F)F)c4c3C(F)(F)[C@@H]3C[C@H]43)nc12 (single isomer, unassigned) [Example 107]	–	> 1000	EC50 ([1]; Table 1a): 27.3 nM
Cc1cccc2nc([C@H](Cc3cc(F)cc(F)c3)NC(=O)Cn3nc(C(F)F)c4c3C(F)(F)[C@@H]3C[C@H]43)n(-c3ccc(Cl)c4c(NS(C)(=O)=O)nn(C)c34)c(=O)c12 (single isomer, unassigned) [Example 125]	–	> 1000	EC50 ([1]; Table 1a): 63.9 nM
N#Cc1ccc(-c2cc3[nH]ncc3nc2[C@H](Cc2cc(F)cc(F)c2)NC(=O)Cn2nc(C(F)F)c3c2C(F)(F)[C@@H]2C[C@H]32)cc1F [Example 10.4, N—((S)-1-(6-(4-cyano-3-fluorophenyl)-1H-pyrazolo[4,3-b]pyridin-5-yl)-2-(3,5-difluorophenyl)ethyl)-2-((3bS,4aR)-3-(difluoromethyl)-5,5-difluoro-3b,4,4a,5-tetrahydro-1H-cyclopropa[3,4]cyclopenta[1,2-c]pyrazol-1-yl)acetamide]	–	–	EC50 ([1]; Renilla, NL43, Table 1): 1150 nM; CC50 at 4 days ([2]; Table 1, day 4, XTT): 8240 nM
COc1ccc2c(=O)n(-c3ccc(Cl)c4c(NS(C)(=O)=O)nn(CC(F)F)c34)c(C(Cc3cc(F)cc(F)c3)NC(=O)Cn3nc(C(F)F)c4c3C(F)(F)[C@@H]3C[C@H]43)nc2n1 (single isomer, unassigned) [Example 54.1]	43.4	> 1000	–
CS(=O)(=O)Nc1nn(CC(F)(F)F)c2c(-c3cc4[nH]ncc4nc3[C@H](Cc3cc(F)cc(F)c3)NC(=O)Cn3nc(C(F)F)c4c3C(F)(F)[C@@H]3C[C@H]43)ccc(Cl)c12 (single isomer, unassigned) [Example 94]	0.146	> 1000	–
CC1(S(=O)(=O)NC(=O)c2cc(-c3cc4[nH]ncc4nc3[C@H](Cc3cc(F)cc(F)c3)NC(=O)Cn3nc(C(F)F)c4c3C(F)(F)[C@@H]3C[C@H]43)ccc2Cl)CC1 [Example 10.20, 2-Chloro-5-(5-((S)-1-(2-((3bS,4aR)-3-(difluoromethyl)-5,5-difluoro-3b,4,4a,5-tetrahydro-1H-cyclopropa[3,4]cyclopenta[1,2-c]pyrazol-1-yl)acetamido)-2-(3,5-difluorophenyl)ethyl)-1H-pyrazolo[4,3-b]pyridin-6-yl)-N-((1-methylcyclopropyl)sulfonyl)benzamide]	–	–	EC50 ([1]; Renilla, NL43, Table 1): 290 nM; CC50 at 4 days ([2]; Table 1, day 4, XTT): > 10000 nM
